Data published in patent publication US9494867B2, “Rinsing liquid for lithography and pattern forming method using same” (AZ ELECTRONIC MATERIALS (LUXEMBOURG) S.A.R.L., priority 2013, dated 2016).

test: Storage stability test of rinse solution; format: physicochemical; design: key: when the defect number of the test rinse solution is equal to or less than that of the rinse solution of the deionized water, it is evaluated as ‘O’; when the number is more than that of the deionized water, it is evaluated as ‘X’; details: additive concentrations more than 3,000 ppm
Experimental: A rinse solution prepared in a predetermined concentration is filtered through a filter and left at rest at 25° C. for one month. A chemically amplified KrF resist composition AZ DX6270P manufactured by AZ Electronic Materials Manufacturing (Japan) K. K. is spin-coated on a silicon wafer and soft-baked at 120° C. for 90 seconds to form a resist film of 620 nm in thickness. The rinse solution after preservation is applied on the resist film and the wafer is rotated at a very high speed to dry it. The total defect numbers of all defects including gel defects and particle defects on this film are measured using a defect inspection apparatus KLA2360 manufactured by KLA Tencor corporation. The number of defects when the preserved test rinse solution is used as a rinse solution is compared with that when the preserved rinse solution consisting of only a deionized water is used (see Comparative example 1) and when the defect number of the test rinse solution is equal to or less than that of the rinse solution of the deionized water, it is evaluated as ‘O’ and when the number is more than that of the deionized water, it is evaluated as ‘X’.

SMILES	Storage stabilities
CCOC(O)C#CC(O)OCC (stereo not shown) [DODD, 3,8-dioxa-5-decyne-4,7-diol, reference compound]	X

test: Measurement of surface tension of rinse solution; format: physicochemical; details: rinse solution containing 1,000 ppm of the additive
Experimental: A surface tension measurement of a prepared rinse solution was conducted using the surface tensiometer CBVP-Z manufactured by Kyowa interface science Co., LTD.

SMILES	Surface tension of the rinse solution
CC(O)C=CC(C)O (stereo not shown) [HXED, 3-hexene-2,5-diol]	66.5 mN/m

test: Measurement of maximum dissolution quantity in water; format: physicochemical; details: water of 25° C.
Experimental: Different amounts of an additive agent for a rinse solution are added between transparent screws and in each cases water is further added as the total amount of the additive agent and water is made 100 g. These are mixed at 25° C. for 10 hours or more by using a stealer and left at rest for some time at this temperature. The state of dissolution thereof is observed by eyes and the maximum amount of the additive agent wherein insoluble matter is not observed in the solution is defined as a maximum dissolution quantity (ppm).

SMILES	Maximum dissolution quantity of additives in water
OCCCCO [1,4-butanediol, reference compound]	>10,000 ppm
OCC#CCO [BTD, 1,4-butynediol]	>10,000 ppm
OCC1CCC(CO)CC1 (stereo not shown) [CHDM, 1,4-cyclohexanedimethanol, reference compound]	>10,000 ppm
CC(C)(O)C#CC(C)(C)O [DMHD, 2,5-dimethyl-3-hexyne-2,5-diol]	>10,000 ppm
CCC(C)(O)C#CC(C)(O)CC (stereo not shown) [DMOD, 3,6-dimethyl-4-octyn-3,6-diol]	>10,000 ppm
CCOC(O)C#CC(O)OCC (stereo not shown) [DODD, 3,8-dioxa-5-decyne-4,7-diol, reference compound]	>10,000 ppm
OCC#CC#CCO [HXDD, 2,4-hexadiyn-1,6-diol]	>10,000 ppm
CC(O)C#CC(C)O (stereo not shown) [HXYD, 3-hexyne-2,5-diol]	>10,000 ppm
OCc1cccc(CO)c1 [MXG, 1,3-benzendimethanol]	>10,000 ppm
OCc1ccccc1CO [OXG, 1,2-benzendimethanol]	>10,000 ppm
OCc1ccc(CO)cc1 [PXG, p-xylylene glycol]	>10,000 ppm
